The structures appear in SMILES notation. “Also recorded” adds a separate entry of the source.

For series [1], the system named is MCF-7/6 breast cancer cells. As to the kind of experiment: AFM spheroid stiffness, MCF-7/6 breast cancer cells. Type of series: cell-based, human. Conditions: 48 h. As for the experimental part: (§1) Selectivity for CAFs with respect to normal fibroblasts and other cell types was assessed by performing an identical experiment with normal fibroblasts and other cell types, where compounds were considered selective for CAFs if they only modulate CAF stiffness.
(§2) U-shaped, 384-well ULA plates (cat. no. MS-9384UZ, S-bio) were seeded with a suspension of cell-specific culture media with cells. Cells were allowed to form spheroids for an appropriate time under treatment conditions before use in experiments. Cell culture dishes (cat. no. 734-2814, VWR) were filled with collagen gel and placed at 37° C. for an appropriate time to allow solidification. For each condition, spheroids were pooled in one cell culture dish. The medium was removed (stored at 37° C.) to promote attachment of the bottom of each spheroid to the collagen gel. The cell culture dishes were incubated at 37° C. After the incubation period, the stored medium was carefully (prevent detachment of spheroids) added to the dishes.
(§3) Mechanical measurements were performed using an atomic force microscope. To indent the spheroids an in-house made colloidal probe was used. Force curves were collected using an appropriate setpoint and probe speed (depending on the stiffness of the spheroids). On each spheroid multiple force curves were collected. Collected curves were then processed using the JPK DP software. Young's modulus was extracted from the force curves. All experiments were performed in biological triplicate.
(§4) To generate 3D cultures mimicking the complexity and pathophysiology of in vivo tumors, spheroids were used (cfr. point 4). Spheroids are considered to better simulate cellular heterogeneity, nutrient and oxygen gradients, cell-cell interactions, cell-matrix interactions, gene expression profiles, stromal interactions, therapeutic responses, multicellular resistance, drug penetration and anti-apoptotic signaling.

Series [2] concerns primary human atrial fibroblasts. In words: AFM spheroid stiffness, primary human atrial fibroblasts. Conditions: 1 μM, 48 h. Type of series: cell-based. As for the experimental part: as §1, §2, §3, §4
Series [3] can be described thus: 4T1-based intraductal model: tolerability. Conditions: oral in Medigel, 100 mg/kg three times per day; weekly evaluation across 6 w study period. Type of series: in vivo. The protocol:
Compounds were dissolved in DMSO. The compound solution was subsequently aspired using a 1 mL syringe and an 18 G (pink) needle, including additional air to help eject all the solution and avoid retention of compound in the dead volume. The solution was injected into a Medigel in five parts at five different sites and a volume of gel was aspired and reinjected into the cup at the last site to rinse the dead volume of the syringe. The medication was shaken vigorously afterwards and visually examined for even dispersion of compound. Mice received freshly prepared cups with medication every 48 h and gels were placed in gel cup holders to avoid contact with bedding material and absorbent shavings in the mouse cage. The amount of Medigel given to the mice was weekly determined and depended on the mean mouse body weight and consumption. The dosing level was kept constant at 100 mg/kg three times per day.
Body weight and body temperature were measured every day during the first week p.i., and once a week during the following 5 weeks (i.e. up to 6 w p.i.) using a digital weighing scale and a rectal temperature probe, respectively. As a measurement of primary tumor growth, primary tumor volumes were weekly monitored using a digital caliper and 4T1-luc-derived bioluminescence in primary tumors was monitored at 1, 3 and 6 w p.i. using the IVIS lumina III system (PerkinElmer, Zaventem, Belgium). To perform in vivo imaging, mice were injected with 200 μl D-luciferin suspended in PBS (2 mg/100 μl; Gold Biotechnology, St. Louis, MO) and images were acquired 10 min later under inhalation anesthesia. To perform ex vivo imaging, mice were sedated with a mixture of 100 mg/kg ketamine (Ketamidor, Ecuphar nv/sa, Oostkamp, Belgium) and 10 mg/kg xylazine (Xylazini Hydrochloridum, Val d'HonyVerdifarm, Beringen, Belgium) and subsequently sacrificed through cervical dislocation. Images of bioluminescent signals in isolated primary tumors, spleens and metastases-bearing organs (including axillary lymph nodes, lungs and liver) were quickly acquired using the IVIS system. Primary tumors and spleens were also weighed using a digital weighing scale. Analysis of the in vivo and ex vivo bioluminescent signals was performed using the living image software 4.7.2.

In series [4] the test system is human invasive MCF-7/6 mammary carcinoma cells. In words: Chick heart invasion (CHI) assay with MCF-7/6 aggregates. Particulars: MCF7/6, 192 h, lowest concentration at which an anti-invasive effect (histological grade I or II) was observed, 8 days, read-out: Lowest active concentration. Type of series: cell-based. The protocol:
Chick heart invasion assays were performed as described earlier (Bracke et al. 2014). Precultured heart fragments of 9-day-old chicken embryos were confronted with MCF-7/6 aggregates on top of a semi-solid agar at 37° C. overnight, after which the confronting pairs were cultured in suspension for 8 days at 37° C., 10% CO2 in presence or absence of a test compound (in duplo). This procedure can also be performed with aggregates of 4T1-Luc cells, for which the suspension culture of the confronting pairs is performed for 3.5 days. All compounds were evaluated at 1 μM and 100 nM; depending on the outcome higher or lower concentrations were subsequently evaluated. Upon fixation in Bouin-Hollande, the cultures were dehydrated and embedded in paraffin. Sections of the confrontation cultures were stained with hematoxylin-eosin are blinded and scored by a trained person (Bracke et al., 2014).
In the chick heart invasion assay cancer cells are confronted with a fragment of normal tissue, so as not to neglect the contribution of the host tissue in the micro-ecosystem that governs tumor behavior. As such, precultured heart tissue fragments (PHFs), dissected from 9-day-old chicken embryos, may be confronted with aggregates of human invasive MCF-7/6 mammary carcinoma cells or other cells in the presence of a certain concentration of a test compound. After eight days for MCF-7/6, or another period depending on the cell type, the interaction between the cancer cells and the PHF is evaluated histologically and classified along a 5-grades subjective scale (Bracke et al. 2014). Grades III and IV are typical for invasion, while grades 0, I and II correspond to absence of invasion. Compounds that inhibit invasion of confronting cancer cells i.e. from III/IV to 0/I/II, are determined as anti-invasive. Possible alternative assays generally known in the art are the type I collagen invasion assay, wound healing assay and the matrigel invasion assay.
The chick heart invasion (CHI) assay is a phenotypic assay that confronts precultured heart tissue fragments (PHFs, ‘normal tissue’), obtained from 9-day-old chicken embryos, with aggregates of human invasive MCF-7/6 mammary carcinoma cells (Bracke et al. 2014). In the control situation, the MCF-7/6 cells encircle, invade and destroy the PHF over an 8-day period. Invasion in this assay is defined as the progressive occupation and destruction of the PHF by the MCF-7/6 cells. Three-dimensional reconstruction of this interaction is obtained by microscopic analysis of all consecutive histological sections of the culture. The read-out is an invasion score according to a 5-grades histological scale.
The CHI closely reproduces the temporal, spatial and histological invasion patterns in man. The co-culture set-up probes for effects on both tumor cells and host tissue, and thus interrogates potential pharmacological targets in either interaction partner. Its use of histological evaluation allows discerning anti-invasive action from cytotoxicity or other effects.
We have submitted flavones B1-B4, flavanones B5-B8 and the intermediate 2′-hydroxychalcones A9, All and A12 to the chick heart invasion assay using MCF-7/6 aggregates. All compounds were evaluated at 1 μM and 100 nM; depending on the outcome higher or lower concentrations were subsequently evaluated. […] This table also includes CHI data on chalcones A1, A2 and A5.

`COc1cc(C(=O)/C=C/c2ccc(F)cc2)cc(OC)c1OC` [Compound A1, 3-(4-Fluorophenyl)-1-(3,4,5-trimethoxyphenyl)prop2-en-1-one]: the figures for the spheroid stiffness entry in series [1] (1 μM), in series [1] (0.03-3 μM) and in series [2] were “no effect”, “not result in a change” and “did not alter; also recorded: no effect”, respectively. Besides, the Body temperature result in series [3] is reported as “no significant variation”. Also, the Body weight entry in series [3] is “no significant variation”. Further, the minimal effective concentration in series [4] turned out to be 0.01 µM.

In the case of `COc1cc2oc(-c3ccc(F)cc3)cc(=O)c2c(OC)c1OC` [Compound B1, 2-(4-Fluorophenyl)-5,6,7-trimethoxy-4H-chromen-4-one], the spheroid stiffness result in series [1] (1 μM) is reported as “no effect”. Further, the spheroid stiffness result in series [2] is on record as “did not alter; also recorded: no effect”. Also, in series [3], the Body temperature entry is given as “no significant variation” and the Body weight result was “no significant variation”. Further, in series [4], the minimal effective concentration was 0.01 µM.
